Patent US12365696B2, “Small-molecule focal adhesion kinase (FAK) inhibitors” (DANA-FARBER CANCER INSTITUTE, INC., priority 2019, dated 2025)
pIC50: −log10 of the molar value.

target: PTK2 (FAK) (Homo sapiens (Human), UniProt Q05397); experiment: Z′-LYTE kinase assay (SelectScreen Biochemical Kinase Profiling), enzymatic IC50; conditions: FAK IC50
Protocol: Enzymatic IC50 data was obtained through ThermoFisher Scientific SelectScreen™ Biochemical Kinase Profiling Service, using a Z′-LYTE™ kinase-specific assay, as described below.
The test compounds were screened in 1% dimethyl sulfoxide (DMSO) (final) in the well. For 10 point titrations, 3-fold serial dilutions were conducted from the starting concentration.
All peptide/kinase mixtures were diluted to a 2× working concentration in the appropriate kinase buffer (see section kinase specific assay conditions for a complete description).
All ATP solutions were diluted to a 4× working concentration in kinase buffer (50 mM 4-(2-hydroxyethyl)-1-piperazineethanesulfonic acid (HEPES) pH 7.5, 0.01% BRIJ-35, 10 mM MgCl2, 1 mM ethylene glycol-bis(β-aminoethyl ether)-N,N,N′,N′-tetraacetic acid (EGTA)). ATP Km apparent was previously determined using a Z′-LYTE assay.
The development reagent was diluted in development buffer (see section kinase-specific assay conditions—direct and cascade for a complete description).
Using a bar-coded Corning, low volume NBS, black 384-well plate (Corning Cat. #4514), 100 nL of 100× test compound in 100% DMSO was added. […] The plate was then shaken for 30 seconds and held at room temperature for a 60 minute kinase reaction incubation period. At which point 5 μL of development reagent solution was added and the plate was shaken for 30 seconds. The plate was held again at room temperature for a 60 minute development reaction incubation period and then read on a fluorescence plate reader and analyzed.
The 2×PTK2 (FAK)/Tyr 07 mixture was prepared in 50 mM HEPES pH 7.5, 0.01% BRIJ-35, 10 mM MgCl2, 1 mM EGTA. […] After the 1 hour kinase reaction incubation period, 5 μL of a 1:16 dilution of development reagent B was added.
SelectScreen Kinase Profiling Service uses XLfit from ID Business Solutions (IDBS). The dose response curve was curve fit to model number 205 (sigmoidal dose-response model).

PTK2 (FAK), sequence (Q05397 whole entry): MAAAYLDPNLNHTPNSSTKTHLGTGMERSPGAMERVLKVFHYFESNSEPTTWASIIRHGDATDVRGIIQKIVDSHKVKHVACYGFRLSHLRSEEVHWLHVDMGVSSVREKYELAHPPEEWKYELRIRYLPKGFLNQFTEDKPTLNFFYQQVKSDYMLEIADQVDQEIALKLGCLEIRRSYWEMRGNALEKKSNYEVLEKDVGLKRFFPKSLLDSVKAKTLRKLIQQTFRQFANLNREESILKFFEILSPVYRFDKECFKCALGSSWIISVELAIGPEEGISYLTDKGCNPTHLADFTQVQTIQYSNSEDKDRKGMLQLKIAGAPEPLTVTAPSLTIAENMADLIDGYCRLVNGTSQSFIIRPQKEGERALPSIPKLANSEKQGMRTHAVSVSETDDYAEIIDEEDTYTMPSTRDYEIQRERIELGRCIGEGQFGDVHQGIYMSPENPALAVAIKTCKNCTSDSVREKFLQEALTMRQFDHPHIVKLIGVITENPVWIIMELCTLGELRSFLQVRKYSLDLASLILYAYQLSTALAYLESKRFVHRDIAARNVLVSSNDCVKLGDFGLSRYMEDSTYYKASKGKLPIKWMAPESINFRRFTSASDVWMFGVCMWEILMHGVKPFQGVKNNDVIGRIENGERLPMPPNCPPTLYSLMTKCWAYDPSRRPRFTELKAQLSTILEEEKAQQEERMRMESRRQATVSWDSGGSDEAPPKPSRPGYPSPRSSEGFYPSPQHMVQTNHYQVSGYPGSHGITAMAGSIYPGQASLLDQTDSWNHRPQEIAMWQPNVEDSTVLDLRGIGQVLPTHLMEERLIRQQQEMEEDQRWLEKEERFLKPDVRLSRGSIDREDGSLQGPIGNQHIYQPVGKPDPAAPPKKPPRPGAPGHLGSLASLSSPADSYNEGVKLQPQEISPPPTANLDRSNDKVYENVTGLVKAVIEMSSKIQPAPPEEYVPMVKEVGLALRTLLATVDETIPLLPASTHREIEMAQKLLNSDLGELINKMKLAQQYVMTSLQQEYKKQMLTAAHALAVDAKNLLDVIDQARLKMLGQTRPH

COc1cc(N2CCC(N3CCN(C)CC3)CC2)ccc1Nc1ncc2c(n1)N(C)c1sc(C(F)(F)F)nc1C(=O)N2C [Compound 177, 6-((2-methoxy-4-(4-(4-methylpiperazin-1-yl)piperidin-1-yl)phenyl)amino)-4,9-dimethyl-2-(trifluoromethyl)-4,9-dihydro-10H-pyrimido[5,4-b]thiazolo[5,4-e][1,4]diazepin-10-one] was tested, and the “lower potency relative to 5” value was roughly 10 fold.

same assay, conditions: enzymatic, Z′-LYTE; read-out: FAK IC50

Compared with COc1cc(N2CCN(C3CCN(C)CC3)CC2)ccc1Nc1ncc2c(n1)N(C)c1sc(C)nc1C(=O)N2C [Compound 195, 6-((2-methoxy-4-(4-(1-methylpiperidin-4-yl)piperazin-1-yl)phenyl)amino)-2,4,9-trimethyl-4,9-dihydro-10H-pyrimido[5,4-b]thiazolo[5,4-e][1,4]diazepin-10-one], CCc1nc2c(s1)N(C)c1nc(Nc3ccc(N4CCC(N5CCN(C)CC5)CC4)cc3OC)ncc1N(C)C2=O [Compound 193, 2-ethyl-6-((2-methoxy-4-(4-(4-methylpiperazin-1-yl)piperidin-1-yl)phenyl)amino)-4,9-dimethyl-4,9-dihydro-10H-pyrimido[5,4-b]thiazolo[5,4-e][1,4]diazepin-10-one] is 0.30 log units higher in pIC50: 7.20 for the first, 7.50 for the second.

First: COc1cc(N2CCC(N3CCN(C)CC3)CC2)ccc1Nc1ncc2c(n1)N(C)c1sc(C(F)(F)F)nc1C(=O)N2C [Compound 177, 6-((2-methoxy-4-(4-(4-methylpiperazin-1-yl)piperidin-1-yl)phenyl)amino)-4,9-dimethyl-2-(trifluoromethyl)-4,9-dihydro-10H-pyrimido[5,4-b]thiazolo[5,4-e][1,4]diazepin-10-one]
Second: COc1cc(N2CCC(N3CCN(C)CC3)CC2)ccc1Nc1ncc2c(n1)N(C)c1sc(C(C)C)nc1C(=O)N2C [Compound 203, 2-isopropyl-6-((2-methoxy-4-(4-(4-methylpiperazin-1-yl)piperidin-1-yl)phenyl)amino)-4,9-dimethyl-4,9-dihydro-10H-pyrimido[5,4-b]thiazolo[5,4-e][1,4]diazepin-10-one]
The pIC50 of the first is 0.36 log units lower: 6.87 for the first, 7.23 for the second.

Compared with Cc1nc2c(s1)N(C)c1nc(Nc3ccc(N4CCN(C)CC4)cn3)ncc1N(C)C2=O [Compound 24, 2,4,9-trimethyl-6-((5-(4-methylpiperazin-1-yl)pyridin-2-yl)amino)-4,9-dihydro-10H-pyrimido[5,4-b]thiazolo[5,4-e][1,4]diazepin-10-one], Cc1nc2c(s1)N(C)c1nc(Nc3ccc(N4CCN(C)CC4)cc3OCCO)ncc1N(C)C2=O [Compound 17, 6-((2-(2-hydroxyethoxy)-4-(4-methylpiperazin-1-yl)phenyl)amino)-2,4,9-trimethyl-4,9-dihydro-10H-pyrimido[5,4-b]thiazolo[5,4-e][1,4]diazepin-10-one] is 0.38 log units lower in pIC50: 6.71 for the first, 6.33 for the second.

First: Cc1nc2c(s1)N(C)c1nc(Nc3ccc(N4CCN(C)CC4)cc3OCC(F)(F)F)ncc1N(C)C2=O [Compound 201, 2,4,9-trimethyl-6-((4-(4-methylpiperazin-1-yl)-2-(2,2,2-trifluoroethoxy)phenyl)amino)-4,9-dihydro-10H-pyrimido[5,4-b]thiazolo[5,4-e][1,4]diazepin-10-one]
Second: CCCOc1cc(N2CCN(C)CC2)ccc1Nc1ncc2c(n1)N(C)c1sc(C)nc1C(=O)N2C [Compound 202, 2,4,9-trimethyl-6-((4-(4-methylpiperazin-1-yl)-2-propoxyphenyl)amino)-4,9-dihydro-10H-pyrimido[5,4-b]thiazolo[5,4-e][1,4]diazepin-10-one]
The pIC50 of the first is 0.27 log units higher: 7.08 for the first, 6.81 for the second.

CCN1c2nc(Nc3ccc(N4CCC(N5CCN(C)CC5)CC4)cc3OC)ncc2NC(=O)c2nc(C)sc21 [Compound 9, 4-ethyl-6-((2-methoxy-4-(4-(4-methylpiperazin-1-yl)piperidin-1-yl)phenyl)amino)-2-methyl-4,9-dihydro-10H-pyrimido[5,4-b]thiazolo[5,4-e][1,4]diazepin-10-one] and CCc1nc2c(s1)N(C)c1nc(Nc3ccc(N4CCC(N5CCN(C)CC5)CC4)cc3OC)ncc1NC2=O [Compound 8, 2-ethyl-6-((2-methoxy-4-(4-(4-methylpiperazin-1-yl)piperidin-1-yl)phenyl)amino)-4-methyl-4,9-dihydro-10H-pyrimido[5,4-b]thiazolo[5,4-e][1,4]diazepin-10-one] are within 0.2 log units of each other in pIC50: 7.35 for the first, 7.49 for the second.

CN1CCN(c2ccc(Nc3ncc4c(n3)N(C)c3sc(-c5ccccc5)nc3C(=O)N4C)cc2)CC1 [Compound 184, 4,9-dimethyl-6-((4-(4-methylpiperazin-1-yl)phenyl)amino)-2-phenyl-4,9-dihydro-10H-pyrimido[5,4-b]thiazolo[5,4-e][1,4]diazepin-10-one] and COc1cc(N2CCC(N3CCN(C)CC3)CC2)ccc1Nc1ncc2c(n1)N(C)c1sc(-c3ccccc3)nc1C(=O)N2C [Compound 186, 6-((2-methoxy-4-(4-(4-methylpiperazin-1-yl)piperidin-1-yl)phenyl)amino)-4,9-dimethyl-2-phenyl-4,9-dihydro-10H-pyrimido[5,4-b]thiazolo[5,4-e][1,4]diazepin-10-one] cannot be ordered by pIC50: less than 5.00 for the first, less than 5.00 for the second.

Compared with COc1cc(N2CCN(S(C)(=O)=O)CC2)ccc1Nc1ncc2c(n1)N(C)c1sc(C)nc1C(=O)N2 [Compound 11, 6-((2-methoxy-4-(4-(methylsulfonyl)piperazin-1-yl)phenyl)amino)-2,4-dimethyl-4,9-dihydro-10H-pyrimido[5,4-b]thiazolo[5,4-e][1,4]diazepin-10-one], COc1cc(Nc2ncc3c(n2)N(C)c2sc(C)nc2C(=O)N3)ccc1N1CCN(C)CC1 [Compound 4, 6-((3-methoxy-4-(4-methylpiperazin-1-yl)phenyl)amino)-2,4-dimethyl-4,9-dihydro-10H-pyrimido[5,4-b]thiazolo[5,4-e][1,4]diazepin-10-one] is 0.71 log units lower in pIC50: 7.75 for the first, 7.04 for the second.

C=CC(=O)N1CCN(c2ccc(Nc3ncc4c(n3)N(C)c3sc(C)nc3C(=O)N4C)c(OC)c2)CC1 [Compound 13, 6-((4-(4-acryloylpiperazin-1-yl)-2-methoxyphenyl)amino)-2,4,9-trimethyl-4,9-dihydro-10H-pyrimido[5,4-b]thiazolo[5,4-e][1,4]diazepin-10-one] and COc1cc(N2CCN(C(C)=O)CC2)ccc1Nc1ncc2c(n1)N(C)c1sc(C)nc1C(=O)N2C [Compound 199, 6-((4-(4-acetylpiperazin-1-yl)-2-methoxyphenyl)amino)-2,4,9-trimethyl-4,9-dihydro-10H-pyrimido[5,4-b]thiazolo[5,4-e][1,4]diazepin-10-one] are within 0.2 log units of each other in pIC50: 7.27 for the first, 7.34 for the second.

Compared with COc1cc(N2CCN(C)CC2=O)ccc1Nc1ncc2c(n1)N(C)c1sc(C)nc1C(=O)N2C [Compound 196, 6-((2-methoxy-4-(4-methyl-2-oxopiperazin-1-yl)phenyl)amino)-2,4,9-trimethyl-4,9-dihydro-10H-pyrimido[5,4-b]thiazolo[5,4-e][1,4]diazepin-10-one], CCCN1c2nc(Nc3ccc(N4CCC(N5CCN(C)CC5)CC4)cc3OC)ncc2N(C)C(=O)c2nc(C)sc21 [Compound 205, 6-((2-methoxy-4-(4-(4-methylpiperazin-1-yl)piperidin-1-yl)phenyl)amino)-2,9-dimethyl-4-propyl-4,9-dihydro-10H-pyrimido[5,4-b]thiazolo[5,4-e][1,4]diazepin-10-one] is 0.25 log units higher in pIC50: 7.08 for the first, 7.33 for the second. The second is the more potent here.

Compared with Cc1nc2c(s1)N(C)c1nc(Nc3cnn(C)c3)ncc1N(C)C2=O [Compound 26, 2,4,9-trimethyl-6-((1-methyl-1H-pyrazol-4-yl)amino)-4,9-dihydro-10H-pyrimido[5,4-b]thiazolo[5,4-e][1,4]diazepin-10-one], Cc1nc2c(s1)N(C)c1nc(Nc3ccc(N4CCN(C)CC4)cc3)ncc1NC2=O [Compound 1, 2,4-dimethyl-6-((4-(4-methylpiperazin-1-yl)phenyl)amino)-4,9-dihydro-10H-pyrimido[5,4-b]thiazolo[5,4-e][1,4]diazepin-10-one] is 0.46 log units higher in pIC50: 6.18 for the first, 6.64 for the second.

First: Cc1nc2c(s1)N(C)c1nc(Nc3ccc(N4CCC(O)CC4)cc3)ncc1NC2=O [Compound 2, 6-((4-(4-hydroxypiperidin-1-yl)phenyl)amino)-2,4-dimethyl-4,9-dihydro-10H-pyrimido[5,4-b]thiazolo[5,4-e][1,4]diazepin-10-one]
Second: CNC(=O)c1ccc(Nc2ncc3c(n2)N(C)c2sc(C)nc2C(=O)N3)cc1 [Compound 10, 4-((2,4-dimethyl-10-oxo-9,10-dihydro-4H-pyrimido[5,4-b]thiazolo[5,4-e][1,4]diazepin-6-yl)amino)-N-methylbenzamide]
The pIC50 of the first is 0.65 log units lower: 6.24 for the first, 6.89 for the second.

COc1cc(N2CCC(N3CCN(C)CC3)CC2)ccc1Nc1ncc2c(n1)N(CC(F)(F)F)c1sc(C)nc1C(=O)N2C [Compound 204, 6-((2-methoxy-4-(4-(4-methylpiperazin-1-yl)piperidin-1-yl)phenyl)amino)-2,9-dimethyl-4-(2,2,2-trifluoroethyl)-4,9-dihydro-10H-pyrimido[5,4-b]thiazolo[5,4-e][1,4]diazepin-10-one] and COc1cc(Nc2ncc3c(n2)N(C)c2sc(C)nc2C(=O)N3)ccc1N1CCC(N2CCN(C)CC2)CC1 [Compound 194, 6-((3-methoxy-4-(4-(4-methylpiperazin-1-yl)piperidin-1-yl)phenyl)amino)-2,4-dimethyl-4,9-dihydro-10H-pyrimido[5,4-b]thiazolo[5,4-e][1,4]diazepin-10-one] are within 0.2 log units of each other in pIC50: 7.17 for the first, 7.25 for the second.

same assay, conditions: phenyl substituent at thiazole 2-position

With CN1CCN(c2ccc(Nc3ncc4c(n3)N(C)c3sc(-c5ccccc5)nc3C(=O)N4C)cc2)CC1 [Compound 184, 4,9-dimethyl-6-((4-(4-methylpiperazin-1-yl)phenyl)amino)-2-phenyl-4,9-dihydro-10H-pyrimido[5,4-b]thiazolo[5,4-e][1,4]diazepin-10-one] the “FAK inhibitory activity (in words)” value was “abrogated activity”.
